Numbers after ± are expanded uncertainties.
Columns and labels:
[1] = refractive index (Na D-line) (dimensionless); details: 101.33 kPa, Liquid, Standard Abbe refractometry
[2] = Liquid; for mass density: 101.33 kPa, Vibrating tube method; for Normal boiling temperature: Ebulliometric method (Recirculating still)

Molecule CCCCCCCCO [octan-1-ol] has a refractive index ([1]; 293.15 K) of 1.428 ± 0.012, a mass density ([2]; 298.15 K) of 825.95 ± 0.24 kg/m3 and a Normal boiling temperature [2] of 195.1 ± 0.2 °C.
CCCC(=O)OCC [ethyl butanoate] gave a refractive index ([1]; 298.15 K) of 1.3891 ± 0.012, a mass density ([2]; 298.15 K) of 873.25 ± 0.7 kg/m3 and a Normal boiling temperature [2] of 121.40 ± 0.2 °C.
In the case of CCOC(=O)CC(=O)OCC [diethyl 1,3-propanedioate], the refractive index ([1]; 293.15 K) is reported as 1.4135 ± 0.012, the mass density ([2]; 293.15 K) is reported as 1055.25 ± 0.95 kg/m3 and the Normal boiling temperature [2] is reported as 199.90 ± 0.2 °C.
CCCC(=O)O [butanoic acid] gave a refractive index ([1]; 293.15 K) of 1.3982 ± 0.012, a mass density ([2]; 298.15 K) of 952.6 ± 0.24 kg/m3 and a Normal boiling temperature [2] of 163.7 ± 0.2 °C.
In the case of O [water], the refractive index ([1]; 293.15 K) is reported as 1.3325 ± 0.012, the mass density ([2]; 293.15 K) is reported as 999.7 ± 0.08 kg/m3 and the Normal boiling temperature [2] is reported as 100.10 ± 0.2 °C.
CC(=O)c1ccccc1 [acetophenone] gave a refractive index ([1]; 293.15 K) of 1.5361 ± 0.012, a mass density ([2]; 293.15 K) of 1027.9 ± 0.9 kg/m3 and a Normal boiling temperature [2] of 202.0 ± 0.2 °C.
CCCCC(=O)OCC [ethyl pentanoate] gave a refractive index ([1]; 293.15 K) of 1.4125 ± 0.012, a mass density ([2]; 293.15 K) of 877.15 ± 0.24 kg/m3 and a Normal boiling temperature [2] of 146.2 ± 0.2 °C.

From the NIST ThermoML archive (doi:10.1016/j.fluid.2014.03.008)
